Test [1] addresses Tyrosine-protein kinase ABL1 (Homo sapiens, UniProt P00519).
The target of test [2] is Citron Rho-interacting kinase (Homo sapiens, UniProt O14578).
For a further test, the target named is Insulin receptor (Homo sapiens, UniProt P06213).
The target in test [3] is Interleukin-1 receptor-associated kinase 1 (Homo sapiens, UniProt P51617).
The target of test [4] is T1, Serine/threonine-protein kinase LATS1 (Homo sapiens, UniProt O95835).
T1 sequence (O95835 whole entry): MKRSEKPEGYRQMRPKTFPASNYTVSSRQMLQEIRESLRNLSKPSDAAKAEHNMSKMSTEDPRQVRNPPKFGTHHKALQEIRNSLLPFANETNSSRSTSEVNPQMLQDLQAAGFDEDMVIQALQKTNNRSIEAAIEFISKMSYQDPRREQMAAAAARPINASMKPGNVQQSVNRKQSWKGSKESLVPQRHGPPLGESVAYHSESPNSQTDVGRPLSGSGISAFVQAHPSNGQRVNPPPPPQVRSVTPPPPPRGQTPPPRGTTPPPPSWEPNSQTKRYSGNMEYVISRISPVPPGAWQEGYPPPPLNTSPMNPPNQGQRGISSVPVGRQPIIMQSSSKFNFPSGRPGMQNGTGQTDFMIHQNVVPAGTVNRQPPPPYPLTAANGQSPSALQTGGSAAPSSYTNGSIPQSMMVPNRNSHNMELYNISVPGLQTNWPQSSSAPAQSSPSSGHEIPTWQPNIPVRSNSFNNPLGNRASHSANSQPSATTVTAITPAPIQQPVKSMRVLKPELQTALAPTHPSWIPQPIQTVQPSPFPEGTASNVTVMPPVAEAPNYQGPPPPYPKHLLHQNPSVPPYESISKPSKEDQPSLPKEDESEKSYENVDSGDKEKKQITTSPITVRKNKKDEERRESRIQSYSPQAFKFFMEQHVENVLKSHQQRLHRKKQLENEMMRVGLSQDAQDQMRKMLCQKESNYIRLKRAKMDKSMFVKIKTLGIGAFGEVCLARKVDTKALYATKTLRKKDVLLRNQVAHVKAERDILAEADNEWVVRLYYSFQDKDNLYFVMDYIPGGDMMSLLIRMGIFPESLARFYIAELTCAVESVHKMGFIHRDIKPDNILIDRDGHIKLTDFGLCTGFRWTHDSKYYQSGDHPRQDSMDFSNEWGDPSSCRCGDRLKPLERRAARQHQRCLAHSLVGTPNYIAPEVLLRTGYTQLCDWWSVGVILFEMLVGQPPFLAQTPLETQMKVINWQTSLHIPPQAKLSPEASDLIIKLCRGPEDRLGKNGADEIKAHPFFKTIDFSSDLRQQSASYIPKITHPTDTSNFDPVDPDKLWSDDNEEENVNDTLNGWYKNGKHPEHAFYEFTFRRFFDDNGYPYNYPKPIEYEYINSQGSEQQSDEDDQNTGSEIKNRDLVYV

Test [5] deals with Mitogen-activated protein kinase 7 (Homo sapiens, UniProt Q13164).
Sequence of Mitogen-activated protein kinase 7 (Q13164 whole entry): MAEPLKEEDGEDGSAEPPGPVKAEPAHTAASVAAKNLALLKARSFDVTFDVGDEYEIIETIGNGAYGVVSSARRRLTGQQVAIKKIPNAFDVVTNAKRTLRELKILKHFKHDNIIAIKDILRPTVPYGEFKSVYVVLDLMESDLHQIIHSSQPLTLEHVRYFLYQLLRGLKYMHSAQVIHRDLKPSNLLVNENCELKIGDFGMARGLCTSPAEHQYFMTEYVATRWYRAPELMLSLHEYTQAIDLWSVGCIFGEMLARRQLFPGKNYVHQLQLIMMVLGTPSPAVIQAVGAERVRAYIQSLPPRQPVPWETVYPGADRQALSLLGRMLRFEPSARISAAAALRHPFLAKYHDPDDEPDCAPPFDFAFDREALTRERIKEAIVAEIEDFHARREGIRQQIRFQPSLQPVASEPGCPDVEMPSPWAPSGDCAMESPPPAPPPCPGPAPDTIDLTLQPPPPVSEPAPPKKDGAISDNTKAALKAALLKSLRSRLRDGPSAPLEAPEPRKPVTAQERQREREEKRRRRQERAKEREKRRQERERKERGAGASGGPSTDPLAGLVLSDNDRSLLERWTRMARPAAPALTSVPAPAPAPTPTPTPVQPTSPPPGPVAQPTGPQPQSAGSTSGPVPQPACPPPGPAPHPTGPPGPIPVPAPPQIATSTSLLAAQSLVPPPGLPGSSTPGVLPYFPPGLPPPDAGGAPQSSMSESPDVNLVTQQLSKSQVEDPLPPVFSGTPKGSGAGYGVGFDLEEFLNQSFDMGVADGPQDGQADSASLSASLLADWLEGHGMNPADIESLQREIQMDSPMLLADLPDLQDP
The target of test [6] is Mitogen-activated protein kinase 8 (Homo sapiens, UniProt P45983).
Sequence of Mitogen-activated protein kinase 8 (P45983 whole entry): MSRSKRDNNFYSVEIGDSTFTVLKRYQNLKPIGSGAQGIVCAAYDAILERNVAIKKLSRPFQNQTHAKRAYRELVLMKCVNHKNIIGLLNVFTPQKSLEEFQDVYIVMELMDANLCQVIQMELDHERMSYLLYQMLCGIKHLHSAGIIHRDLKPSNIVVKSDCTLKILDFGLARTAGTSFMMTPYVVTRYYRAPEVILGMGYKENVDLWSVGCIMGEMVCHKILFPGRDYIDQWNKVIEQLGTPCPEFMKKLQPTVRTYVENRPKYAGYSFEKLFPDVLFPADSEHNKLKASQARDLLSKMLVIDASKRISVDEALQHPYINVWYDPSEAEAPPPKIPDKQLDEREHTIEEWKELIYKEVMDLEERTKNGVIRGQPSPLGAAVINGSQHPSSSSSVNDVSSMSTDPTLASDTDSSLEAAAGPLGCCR
A further test addresses T2, Pyridoxal kinase (Homo sapiens, UniProt O00764).
T2 sequence (O00764 whole entry): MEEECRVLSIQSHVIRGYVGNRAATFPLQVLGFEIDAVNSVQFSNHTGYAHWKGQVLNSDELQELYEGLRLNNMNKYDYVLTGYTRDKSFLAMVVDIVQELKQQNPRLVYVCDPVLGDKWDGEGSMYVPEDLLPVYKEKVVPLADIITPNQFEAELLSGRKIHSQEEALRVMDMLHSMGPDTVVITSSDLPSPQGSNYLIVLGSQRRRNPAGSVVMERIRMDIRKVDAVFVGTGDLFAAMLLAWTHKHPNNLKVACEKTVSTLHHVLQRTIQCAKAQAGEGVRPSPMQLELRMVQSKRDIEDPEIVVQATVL

The target in test [7] is T3, Serine/threonine-protein kinase PLK4 (Homo sapiens, UniProt O00444).
T3 sequence (O00444 whole entry): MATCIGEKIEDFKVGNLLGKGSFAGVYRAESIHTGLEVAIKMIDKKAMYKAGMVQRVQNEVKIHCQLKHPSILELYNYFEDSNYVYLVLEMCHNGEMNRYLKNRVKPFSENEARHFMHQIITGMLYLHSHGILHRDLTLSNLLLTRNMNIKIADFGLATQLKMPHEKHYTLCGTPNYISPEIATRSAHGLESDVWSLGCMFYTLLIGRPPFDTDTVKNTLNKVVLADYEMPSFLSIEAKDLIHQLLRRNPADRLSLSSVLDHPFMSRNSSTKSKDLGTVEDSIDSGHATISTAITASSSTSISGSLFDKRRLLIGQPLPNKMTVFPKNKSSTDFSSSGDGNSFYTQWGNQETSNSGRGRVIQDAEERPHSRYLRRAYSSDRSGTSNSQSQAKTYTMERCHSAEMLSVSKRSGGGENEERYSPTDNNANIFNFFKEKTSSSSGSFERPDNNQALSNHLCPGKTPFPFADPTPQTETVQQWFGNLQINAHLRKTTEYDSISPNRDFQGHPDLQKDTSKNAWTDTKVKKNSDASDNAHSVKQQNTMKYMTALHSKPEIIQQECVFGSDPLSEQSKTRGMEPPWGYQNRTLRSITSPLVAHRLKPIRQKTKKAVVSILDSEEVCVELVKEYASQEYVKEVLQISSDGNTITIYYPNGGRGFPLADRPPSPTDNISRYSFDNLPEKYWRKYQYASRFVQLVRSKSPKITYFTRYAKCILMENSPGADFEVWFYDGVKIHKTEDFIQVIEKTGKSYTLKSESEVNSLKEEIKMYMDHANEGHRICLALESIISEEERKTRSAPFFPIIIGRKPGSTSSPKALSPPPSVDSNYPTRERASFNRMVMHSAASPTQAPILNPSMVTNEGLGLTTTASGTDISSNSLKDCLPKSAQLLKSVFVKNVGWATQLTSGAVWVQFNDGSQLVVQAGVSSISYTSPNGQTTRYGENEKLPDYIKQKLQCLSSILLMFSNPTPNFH

For test [8], the target named is GTP-binding nuclear protein Ran (Homo sapiens, UniProt P62826).

From ChEMBL document CHEMBL3991601, “The target landscape of clinical kinase drugs” (Science, 2017) come the findings set out here.

Active and inactive are the calls of the source. For most assays here, no stated cut-off is given here; in the data, actives have a measured Kd and inactives only a lower limit.

Sequence of Insulin receptor (P06213 28-758 limits assumed): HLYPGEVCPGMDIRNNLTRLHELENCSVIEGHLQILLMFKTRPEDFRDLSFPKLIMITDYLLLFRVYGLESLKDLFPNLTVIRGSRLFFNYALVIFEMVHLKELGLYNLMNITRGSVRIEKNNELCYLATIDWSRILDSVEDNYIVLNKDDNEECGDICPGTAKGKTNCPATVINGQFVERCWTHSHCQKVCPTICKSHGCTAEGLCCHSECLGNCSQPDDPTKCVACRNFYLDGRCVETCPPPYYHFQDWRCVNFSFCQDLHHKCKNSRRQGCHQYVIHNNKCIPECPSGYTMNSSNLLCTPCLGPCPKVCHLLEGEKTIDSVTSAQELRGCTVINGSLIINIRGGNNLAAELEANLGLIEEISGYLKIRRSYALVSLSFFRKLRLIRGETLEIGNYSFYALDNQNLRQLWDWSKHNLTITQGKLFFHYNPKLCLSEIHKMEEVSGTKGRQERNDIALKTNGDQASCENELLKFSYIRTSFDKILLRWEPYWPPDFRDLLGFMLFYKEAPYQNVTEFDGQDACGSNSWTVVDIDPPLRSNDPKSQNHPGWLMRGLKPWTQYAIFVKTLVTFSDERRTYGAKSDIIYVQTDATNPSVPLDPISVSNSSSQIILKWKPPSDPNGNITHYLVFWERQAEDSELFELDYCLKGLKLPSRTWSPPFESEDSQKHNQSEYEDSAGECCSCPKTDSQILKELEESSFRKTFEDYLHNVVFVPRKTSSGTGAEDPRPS
Sequence of Insulin receptor (P06213 763-1382 limits assumed): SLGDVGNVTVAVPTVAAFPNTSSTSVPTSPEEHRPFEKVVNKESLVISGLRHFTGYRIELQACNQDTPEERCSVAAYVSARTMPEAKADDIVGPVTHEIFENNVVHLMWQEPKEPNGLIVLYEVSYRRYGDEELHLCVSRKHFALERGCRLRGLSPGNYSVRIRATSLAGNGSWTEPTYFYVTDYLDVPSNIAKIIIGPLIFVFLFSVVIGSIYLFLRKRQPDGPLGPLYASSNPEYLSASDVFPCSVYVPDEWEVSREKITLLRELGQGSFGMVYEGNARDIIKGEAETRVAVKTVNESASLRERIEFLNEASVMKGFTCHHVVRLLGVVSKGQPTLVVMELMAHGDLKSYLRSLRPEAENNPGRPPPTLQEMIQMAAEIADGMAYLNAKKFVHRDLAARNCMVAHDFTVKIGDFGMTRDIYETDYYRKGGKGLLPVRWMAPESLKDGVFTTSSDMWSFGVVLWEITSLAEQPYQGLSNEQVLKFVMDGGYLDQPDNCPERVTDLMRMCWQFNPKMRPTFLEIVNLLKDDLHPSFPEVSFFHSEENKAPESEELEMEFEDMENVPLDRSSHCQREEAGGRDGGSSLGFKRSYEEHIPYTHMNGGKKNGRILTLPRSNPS
Sequence of Citron Rho-interacting kinase (O14578 whole entry): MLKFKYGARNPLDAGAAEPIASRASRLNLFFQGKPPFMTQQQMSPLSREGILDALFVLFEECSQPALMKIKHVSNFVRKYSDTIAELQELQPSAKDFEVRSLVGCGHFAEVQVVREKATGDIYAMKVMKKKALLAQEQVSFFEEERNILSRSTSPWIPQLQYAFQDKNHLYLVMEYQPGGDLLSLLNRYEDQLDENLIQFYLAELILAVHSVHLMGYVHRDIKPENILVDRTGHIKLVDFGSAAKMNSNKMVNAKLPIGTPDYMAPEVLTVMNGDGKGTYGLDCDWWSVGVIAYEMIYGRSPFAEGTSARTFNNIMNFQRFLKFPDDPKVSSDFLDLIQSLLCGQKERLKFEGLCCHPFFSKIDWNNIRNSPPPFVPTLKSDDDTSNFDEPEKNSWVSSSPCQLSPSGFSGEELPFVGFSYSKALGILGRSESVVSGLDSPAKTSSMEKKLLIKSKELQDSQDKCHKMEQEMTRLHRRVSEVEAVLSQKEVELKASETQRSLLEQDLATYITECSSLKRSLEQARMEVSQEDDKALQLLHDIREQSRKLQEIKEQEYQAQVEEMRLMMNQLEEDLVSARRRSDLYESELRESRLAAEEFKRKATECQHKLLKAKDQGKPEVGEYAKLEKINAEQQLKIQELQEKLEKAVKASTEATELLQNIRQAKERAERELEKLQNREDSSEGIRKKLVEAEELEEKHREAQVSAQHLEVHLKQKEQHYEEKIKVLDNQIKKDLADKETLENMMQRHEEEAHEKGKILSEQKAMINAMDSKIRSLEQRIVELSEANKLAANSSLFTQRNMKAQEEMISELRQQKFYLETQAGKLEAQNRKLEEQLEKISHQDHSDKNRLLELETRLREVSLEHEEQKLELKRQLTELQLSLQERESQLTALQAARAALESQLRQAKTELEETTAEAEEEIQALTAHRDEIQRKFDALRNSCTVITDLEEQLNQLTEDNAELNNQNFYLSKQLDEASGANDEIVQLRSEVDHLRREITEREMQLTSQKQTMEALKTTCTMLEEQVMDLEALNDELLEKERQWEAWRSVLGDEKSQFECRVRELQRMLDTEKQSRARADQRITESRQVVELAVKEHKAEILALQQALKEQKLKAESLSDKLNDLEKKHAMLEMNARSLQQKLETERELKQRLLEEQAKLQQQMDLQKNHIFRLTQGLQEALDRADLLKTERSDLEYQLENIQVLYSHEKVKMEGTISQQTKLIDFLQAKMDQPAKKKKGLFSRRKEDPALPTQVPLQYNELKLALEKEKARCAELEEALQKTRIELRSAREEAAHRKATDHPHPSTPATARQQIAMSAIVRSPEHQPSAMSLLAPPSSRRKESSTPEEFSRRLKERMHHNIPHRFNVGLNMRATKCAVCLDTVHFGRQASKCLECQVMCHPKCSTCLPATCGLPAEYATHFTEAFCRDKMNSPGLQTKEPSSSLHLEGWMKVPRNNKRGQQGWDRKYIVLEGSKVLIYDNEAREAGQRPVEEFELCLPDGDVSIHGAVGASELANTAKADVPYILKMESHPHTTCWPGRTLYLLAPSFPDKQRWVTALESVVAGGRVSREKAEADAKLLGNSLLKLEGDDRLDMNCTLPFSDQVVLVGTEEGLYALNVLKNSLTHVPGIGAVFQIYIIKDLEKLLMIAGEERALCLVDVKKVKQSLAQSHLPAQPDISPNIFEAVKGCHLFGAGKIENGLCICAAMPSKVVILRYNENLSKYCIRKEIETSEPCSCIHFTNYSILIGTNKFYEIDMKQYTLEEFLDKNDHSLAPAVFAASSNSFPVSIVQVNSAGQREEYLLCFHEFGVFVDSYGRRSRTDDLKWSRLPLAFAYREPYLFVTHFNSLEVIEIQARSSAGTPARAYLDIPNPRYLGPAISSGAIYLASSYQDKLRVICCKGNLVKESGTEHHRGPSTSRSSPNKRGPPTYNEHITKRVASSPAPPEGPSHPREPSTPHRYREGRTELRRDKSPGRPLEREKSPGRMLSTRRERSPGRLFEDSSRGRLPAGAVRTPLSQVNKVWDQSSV

Usually Kd stands for the equilibrium constant for the complex coming apart. In the case of `C[C@@H](Oc1cc(C(=O)Nc2ccc(C(=O)N3CCN(C)CC3)cc2)nnc1N)c1c(Cl)ccc(F)c1Cl`, the Kd (in test [1]; in test [2]; on Insulin receptor; in [3]; in test [4]; in test [5]) was > 30 µM (inactive) throughout. Further, the Kd (in test [6]; on Pyridoxal kinase; in test [7]; in test [8]) was > 30 µM (inactive) in each case.
Consider `C[C@H]1CNCCCN1S(=O)(=O)c1cccc2cncc(F)c12`, for which the Kd (in test [1]; in test [2]; on Insulin receptor; in test [3]; in test [4]; in test [5]) was > 30 µM (inactive) in each case. Moreover, the Kd in test [6] is > 30 µM (inactive); on Pyridoxal kinase it was > 30 µM (inactive); in test [7], 8.14 µM (active); in test [8], > 30 µM (inactive).
Take `CC(=O)c1cnc2ccc(-c3cc(Cl)c(O)c(Cl)c3)nc2c1N[C@H]1CC[C@H](CN(C)C)CC1`: the Kd is 0.28 µM (active) in test [1]; 0.098 µM (active) in test [2]; > 30 µM (inactive) at Insulin receptor; 0.014 µM (active) in [4]; > 30 µM (inactive) in test [5]; > 30 µM (inactive) on Pyridoxal kinase. Further, in test [8], the Kd was > 30 µM (inactive).
Take `CCNC(=O)C#Cc1ccc2c(c1)NC(=O)/C2=C(\Nc1ccc(CN(C)C)cc1)c1ccccc1`: the Kd in test [1] is 1.59 µM (active); in test [2], > 30 µM (inactive); at Insulin receptor, > 30 µM (inactive); in [3] it was > 30 µM (inactive); in test [4], 0.635 µM (active); in [5], > 30 µM (inactive). The Kd was > 30 µM (inactive) in test [6], > 30 µM (inactive) at Pyridoxal kinase, 0.333 µM (active) in [7] and > 30 µM (inactive) in test [8].
As for `C=CC(=O)N1CCC[C@H](n2c(=O)n(-c3ccc(Oc4ccccc4)cc3)c3c(N)ncnc32)C1`, the Kd (in [1]; in test [2]; on Insulin receptor; in [3]; in test [4]; in [5]) was > 30 µM (inactive) in each case. Besides, the Kd (in test [6]; at Pyridoxal kinase; in test [7]; in test [8]) was > 30 µM (inactive) in each case.
In the case of `Cc1nc2cc(-c3nn(C(C)C)c4ncnc(N)c34)ccc2o1`, the Kd (in test [1]; in test [2]; at Insulin receptor; in test [3]; in test [4]; in [5]) was > 30 µM (inactive) throughout. For the same molecule, the Kd (in test [6]; at Pyridoxal kinase; in test [7]; in test [8]) was > 30 µM (inactive) throughout.
For the molecule `COCc1c(-c2ccc(NC(=O)Nc3cc(C(F)(F)F)ccc3F)c(F)c2)c2c(N)ncnn2c1CN1CCOCC1`, the Kd (in test [1]; in test [2]; on Insulin receptor; in test [3]; in test [4]; in [5]) was > 30 µM (inactive) each time. In addition, the Kd (in test [6]; on Pyridoxal kinase; in test [7]; in test [8]) was > 30 µM (inactive) each time.
Consider `Nc1ncnc2c1c(-c1cccc(OCc3ccccc3)c1)cn2[C@H]1C[C@@H](CN2CCC2)C1` [AEW-541], for which the Kd in [1] was > 30 µM (inactive); in test [2], > 30 µM (inactive); on Insulin receptor, 4.04 µM (active); in test [3], > 30 µM (inactive); in [4], 3.88 µM (active); in test [5], > 30 µM (inactive). For the same molecule, the Kd (in test [6]; on Pyridoxal kinase; in test [7]; in [8]) was > 30 µM (inactive) each time.
In the case of `COc1cc2ncnc(Oc3cccc(NC(=O)Nc4cc(C(C)(C)C(F)(F)F)on4)c3)c2cc1OC` [CEP-32496], the Kd in test [1] was 0.05 µM (active); in test [2], > 30 µM (inactive); in test [3], > 30 µM (inactive); in test [4], > 30 µM (inactive); in [5], > 30 µM (inactive); in test [6] it was 1.47 µM (active). The Kd (at Pyridoxal kinase; in test [7]; in test [8]) was > 30 µM (inactive) each time.
Consider `Cc1cc(Nc2ncc(Cl)c(Nc3ccccc3S(=O)(=O)C(C)C)n2)c(OC(C)C)cc1C1CCNCC1` [CERITINIB], for which the Kd in test [1] was > 30 µM (inactive); in test [2], > 30 µM (inactive); in [3], > 30 µM (inactive); in test [4] it was > 30 µM (inactive); in test [5], 9.85 µM (active); in [6], > 30 µM (inactive). For the same molecule, the Kd at Pyridoxal kinase was > 30 µM (inactive); in test [7] it was 7.1 µM (active); in test [8], > 30 µM (inactive).
With `Cn1ncc(Cl)c1-c1cc(C(=O)N[C@H](CN)Cc2ccc(F)c(F)c2)oc1Cl` [UPROSERTIB], the Kd is > 30 µM (inactive) in [1]; > 30 µM (inactive) in test [2]; > 30 µM (inactive) at Insulin receptor; > 30 µM (inactive) in test [3]; 3.59 µM in test [4]; > 30 µM (inactive) in [6]. Besides, the Kd (at Pyridoxal kinase; in [7]; in test [8]) was > 30 µM (inactive) each time.
